In brackets after ≈: the same amount, converted by molar mass. Activity calls are given as the source filed them. No cut-off for these calls is given here.
How the values were obtained:
P388 = test: Cytotoxicity against mouse P388 cells; assay type: functional, cell-based
Human alphaherpesvirus 1 = test: Antiviral activity against HSV1 in african green monkey BSC1 cells assessed as inhibition of virus-induced cytopathic effect; assay type: functional, organism-based; details: BSC-1
[1] = Cytotoxicity against african green monkey BSC1 cells at 10 ug; assay type: cell-based; details: chlorocebus aethiops, bsc-1
Poliovirus 1 = test: Antiviral activity against Poliovirus type 1 in african green monkey BSC1 cells assessed as inhibition of virus-induced cytopathic effect; assay type: functional, organism-based; details: BSC-1
Candida albicans = test: Antimicrobial activity against Candida albicans at 60 ug/disk; assay type: functional, organism-based
Escherichia coli = test: Antimicrobial activity against Escherichia coli at 60 ug/disk; assay type: functional, organism-based
Bacillus subtilis = test: Antimicrobial activity against Bacillus subtilis at 60 ug/disk; assay type: functional, organism-based
[2] = test system: Trichophyton mentagrophytes; test: Antimicrobial activity against Trichophyton mentagrophytes at 60 ug/disk; assay type: functional, organism-based
Pseudomonas aeruginosa = test: Antimicrobial activity against Pseudomonas aeruginosa at 60 ug/disk; assay type: functional, organism-based

COc1cc(CC=C(C)C)c(OC)c2ccccc12
IC50 (P388): > 25 mg/L

CC(C)=CCC12OC1C(=O)c1ccccc1C2=O (configuration not stated)
Activity (Human alphaherpesvirus 1): inactive
Activity [1]: Active
Activity (Poliovirus 1): inactive
Activity (Candida albicans): Active
Activity (Escherichia coli): inactive
Activity (Bacillus subtilis): Active
IC50 (P388): 0.8 mg/L (≈ 3.3 µM)
Activity [2]: Active
Activity (Pseudomonas aeruginosa): inactive

CC(C)=CCC1(CC=C(C)C)CC(=O)c2ccccc2C1=O
IC50 (P388): > 12.5 mg/L

COC1(OC)c2ccccc2C(=O)C2(CC=C(C)C)OC21 (racemic)
IC50 (P388): > 12.5 mg/L

CC(C)=CCC1=CC(=O)c2ccccc2C1=O [DEOXYLAPACHOL]
Activity (Human alphaherpesvirus 1): inactive
Activity [1]: Active
Activity (Poliovirus 1): inactive
Activity (Candida albicans): Active
Activity (Escherichia coli): inactive
Activity (Bacillus subtilis): Active
IC50 (P388): 0.6 mg/L (≈ 2.65 µM)
Activity [2]: Active
Activity (Pseudomonas aeruginosa): inactive

CC(C)=CCC1=C(O)C(=O)c2ccccc2C1=O [LAPACHOL]
IC50 (P388): 0.2 mg/L (≈ 0.826 µM)
